Assay results taken from the supplement of paper PMC10307832.

How the values were obtained:
Experiment in all cases: relative viability (nuclei count vs DMSO), 5 days (fraction); higher = more cells survive
IDH-C35 + Decitabine = compound: Cc1ccccc1C(C(=O)NC1CCCCC1)N(C(=O)Cn1ccnc1C)c1cccc(F)c1 [IDH-C35] + Nc1ncn([C@H]2C[C@H](O)[C@@H](CO)O2)c(=O)n1 [Decitabine] (partner 2 µM)
In short: (§1)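 A single step with final 0.05% Triton X-100, 1% formaldehyde and 1 ug/ml Hoechst fixed the cells and stained nuclei 5 days after treatment. Lung cancer cell lines in 1536-well plates had been treated by pin tool the day after seeding with one drug alone or a fixed anchor-drug dose plus five library-drug doses (not always all listed) in √10 steps, and nuclei were counted on 4× images. Relative viability is the ratio of nuclei in treated wells to nuclei in vehicle wells, taken as the median of duplicate plates.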

[1] = compound: CC1=C(C(=NN1)C)CC2=C(C3=C(S2)N(C(=O)N(C3=O)C)CC(C)C)C(=O)N4C[C@@H](CO4)O + C[C@@H](Oc1cc(-c2cnn(C3CCNCC3)c2)cnc1N)c1c(Cl)ccc(F)c1Cl [Crizotinib] (partner 1 µM)
In short: as §1

IDH-C35 + Palbociclib = compound: Cc1ccccc1C(C(=O)NC1CCCCC1)N(C(=O)Cn1ccnc1C)c1cccc(F)c1 [IDH-C35] + CC(=O)c1c(C)c2cnc(Nc3ccc(N4CCNCC4)cn3)nc2n(C2CCCC2)c1=O [Palbociclib] (partner 0.5 µM)
In short: as §1

[2] = compound: CC1=C(C(=NN1)C)CC2=C(C3=C(S2)N(C(=O)N(C3=O)C)CC(C)C)C(=O)N4C[C@@H](CO4)O + C[C@]1(O)C[C@@H](c2nc(-c3ccc4ccc(-c5ccccc5)nc4c3)c3c(N)nccn32)C1 [Linsitinib] (partner 1 µM)
In short: as §1

Cell Line	relative viability (IDH-C35 + Decitabine; first compound 0.08 µM)	relative viability (IDH-C35 + Decitabine; first compound 0.253 µM)	relative viability (IDH-C35 + Decitabine; first compound 0.8 µM)	relative viability (IDH-C35 + Decitabine; first compound 2.53 µM)	relative viability (IDH-C35 + Decitabine; first compound 8 µM)	relative viability ([1]; first compound 0.0025 µM)	relative viability ([1]; first compound 0.007906 µM)	relative viability ([1]; first compound 0.025 µM)	relative viability ([1]; first compound 0.07906 µM)	relative viability ([1]; first compound 0.25 µM)	relative viability (IDH-C35 + Palbociclib; first compound 0.08 µM)	relative viability (IDH-C35 + Palbociclib; first compound 0.253 µM)	relative viability (IDH-C35 + Palbociclib; first compound 0.8 µM)	relative viability (IDH-C35 + Palbociclib; first compound 2.53 µM)	relative viability (IDH-C35 + Palbociclib; first compound 8 µM)	relative viability ([2]; first compound 0.0025 µM)	relative viability ([2]; first compound 0.007906 µM)	relative viability ([2]; first compound 0.025 µM)	relative viability ([2]; first compound 0.07906 µM)	relative viability ([2]; first compound 0.25 µM)
NCI-H1437	0.56	0.56	0.576	0.572	0.525	0.967	0.928	0.875	0.949	1.09	0.346	0.313	0.284	0.316	0.294	1.03	1.21	1.01	1.1	1.08
NCI-H1651	0.528	0.629	0.593	0.615	0.555	0.807	0.857	0.822	0.804	0.786	0.499	0.505	0.523	0.527	0.545	1.03	1.26	0.944	0.908	1.06
NCI-H1666	0.676	0.801	0.747	0.606	0.655	1.04	1.16	1.05	0.977	1.08	0.678	0.674	0.607	0.682	0.645	0.834	0.839	1.06	0.884	0.847
NCI-H1734	0.537	0.524	0.528	0.483	0.499	0.773	0.517	0.641	0.614	0.562	0.359	0.33	0.352	0.325	0.305	0.925	1.05	0.861	0.947	0.881
NCI-H1755	0.685	0.639	0.757	0.708	0.708	0.876	0.952	0.941	0.877	0.967	0.463	0.412	0.438	0.466	0.401	1.05	1.03	0.975	0.957	0.976
NCI-H1792	0.45	0.48	0.476	0.539	0.533	1.04	0.976	0.901	0.855	0.786	0.711	0.609	0.646	0.679	0.673	0.722	0.541	0.487	0.402	0.344
NCI-H1915	0.278	0.248	0.293	0.281	0.277	0.959	0.92	0.836	0.884	1.01	0.51	0.527	0.506	0.556	0.529	1.12	1.13	1.08	1.05	1.17
NCI-H1944	0.43	0.416	0.43	0.416	0.437	1.15	1.25	1.15	1.06	1.08	0.376	0.345	0.338	0.317	0.323	1.13	1.1	1.27	1.15	1.07
NCI-H1975	0.442	0.403	0.379	0.438	0.364	0.942	1	1	0.869	1.08	0.642	0.653	0.606	0.67	0.56	0.956	1.04	1	0.949	1.08
NCI-H1993	0.586	0.567	0.7	0.693	0.566	1.07	0.901	0.965	0.853	0.932	0.649	0.504	0.654	0.617	0.666	0.75	0.678	0.855	0.781	0.74
NCI-H2009	0.354	0.408	0.387	0.321	0.372	0.966	1.03	1.06	1.09	1.11	0.25	0.28	0.32	0.227	0.147	1.24	1.22	1.19	1.27	1.26
NCI-H2023	0.231	0.22	0.259	0.233	0.265	0.76	0.731	0.705	0.691	0.659	0.398	0.34	0.378	0.384	0.357	0.648	0.786	0.696	0.777	0.683
NCI-H2085	0.543	0.549	0.554	0.569	0.465	0.923	0.726	0.8	0.89	0.862	0.448	0.476	0.495	0.492	0.456	0.953	0.956	0.814	0.844	0.77
NCI-H2087	0.284	0.25	0.274	0.302	0.254	0.822	0.804	0.927	0.923	0.937	0.225	0.211	0.24	0.308	0.228	0.962	1.08	1.02	1.02	0.928
NCI-H2126	0.573	0.602	0.592	0.526	0.559	1.05	1.02	1.01	1	1.02	0.349	0.362	0.333	0.351	0.359	0.712	0.789	0.673	0.72	0.67
NCI-H2347	0.647	0.651	0.661	0.599	0.654	0.834	0.813	0.801	0.621	0.875	0.432	0.469	0.42	0.475	0.448	0.992	0.944	0.956	0.894	1.03
